Measured values as given in patent US20100048549A1, “Peptidomimetics selective for the somatostatin receptor subtypes 1 and/or 4” (priority 2005, published 2010).
Where a name gives a salt, the structure may show the parent alone. Read-outs that look alike come from different tables or passages of the source.

Key:
[1] = target: T1, human somatostatin receptor subtype sst3 (Homo sapiens, UniProt P32745); test: Competition binding with 125I-LTT-SRIF-28, CHO cell membranes, sst3; conditions: membranes of CHO cells transfected with human sst3
T1 construct: expressed in transfected cells; host or cells: CHO cells (membranes)
T1 sequence (P32745 whole entry): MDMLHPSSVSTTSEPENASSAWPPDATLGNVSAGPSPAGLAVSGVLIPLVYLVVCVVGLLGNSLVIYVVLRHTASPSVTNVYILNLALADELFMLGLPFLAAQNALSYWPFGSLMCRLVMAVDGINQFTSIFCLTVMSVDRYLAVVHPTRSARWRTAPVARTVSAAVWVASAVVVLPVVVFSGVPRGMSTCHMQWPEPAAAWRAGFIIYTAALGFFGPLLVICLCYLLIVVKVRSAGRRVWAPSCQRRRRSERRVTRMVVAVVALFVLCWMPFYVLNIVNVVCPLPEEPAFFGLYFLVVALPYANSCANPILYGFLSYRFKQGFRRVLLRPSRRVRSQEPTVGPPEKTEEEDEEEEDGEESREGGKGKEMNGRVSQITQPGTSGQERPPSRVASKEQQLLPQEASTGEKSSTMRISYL
Method: (§1) The affinity of the compounds of the invention for the five human somatostatin receptor subtypes (sst1, sst2, sst3, sst4, and sst5) was determined in competition binding assays with (^125I-Tyr)-[Leu^8, DTrp^22]-Somatostatin-28 (^125I-LTT-SRIF-28). The biological material for these experiments consisted of membranes from Chinese hamster ovary (CHO) cells stably transfected with one of the five human somatostatin receptor subtypes. Membranes (3-20 μg of total protein per sample) and trace amount of ^125I-LTT-SRIF-28 were incubated in 10 mM Hepes, 1 mM EDTA, 5 mM MgCl2, 5 mg/ml of BSA and 30 μg/ml bacitracin, pH 7.6, with six concentrations of the compounds. Each concentration was run in duplicate. Nonspecific binding was defined by 1 μM somatostatin-14 (SRIF-14) and corresponded to 5-25% of total binding. After 60 min at room temperature, incubations were terminated by rapid vacuum filtration through GF/B glass fiber filter mats (presoaked at 4° C. in 200 ml of 10 mM Hepes, 1 mM EDTA, 5 mM MgCl2, pH 7.6) and three 5 ml washes with ice-cold wash buffer (20 mM TRIS, 1 mM EDTA, 5 mM MgCl2, pH 7.4). The filters were then dried, impregnated with scintillate and their radioactivity was measured by scintillation counting. […] Affinity constants (Ki) were calculated from the IC50 values according to the Cheng-Prusoff's equation (Cheng and Prusoff, 1973). […]

[2] = target: T2, human somatostatin receptor subtype sst5 (Homo sapiens, UniProt P35346); test: Competition binding with 125I-LTT-SRIF-28, CHO cell membranes, sst5; conditions: membranes of CHO cells transfected with human sst5
T2 construct: expressed in transfected cells; host or cells: CHO cells (membranes)
T2 sequence (P35346 whole entry): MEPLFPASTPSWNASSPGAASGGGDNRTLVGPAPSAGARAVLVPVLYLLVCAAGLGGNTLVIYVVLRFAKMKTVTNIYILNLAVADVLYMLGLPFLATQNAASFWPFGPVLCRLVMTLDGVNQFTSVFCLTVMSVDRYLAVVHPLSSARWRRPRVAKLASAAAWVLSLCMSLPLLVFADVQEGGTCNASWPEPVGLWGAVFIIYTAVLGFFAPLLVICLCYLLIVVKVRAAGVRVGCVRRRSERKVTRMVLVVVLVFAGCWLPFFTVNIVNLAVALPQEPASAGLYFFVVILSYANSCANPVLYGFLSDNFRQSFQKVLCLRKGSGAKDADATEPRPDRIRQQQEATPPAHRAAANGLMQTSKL
Method: as §1

[3] = target: T3, human somatostatin receptor subtype sst4 (Homo sapiens, UniProt P31391); test: Competition binding with 125I-LTT-SRIF-28, CHO cell membranes, sst4
T3 construct: expressed in transfected cells; host or cells: CHO cells (membranes)
T3 sequence (P31391 whole entry): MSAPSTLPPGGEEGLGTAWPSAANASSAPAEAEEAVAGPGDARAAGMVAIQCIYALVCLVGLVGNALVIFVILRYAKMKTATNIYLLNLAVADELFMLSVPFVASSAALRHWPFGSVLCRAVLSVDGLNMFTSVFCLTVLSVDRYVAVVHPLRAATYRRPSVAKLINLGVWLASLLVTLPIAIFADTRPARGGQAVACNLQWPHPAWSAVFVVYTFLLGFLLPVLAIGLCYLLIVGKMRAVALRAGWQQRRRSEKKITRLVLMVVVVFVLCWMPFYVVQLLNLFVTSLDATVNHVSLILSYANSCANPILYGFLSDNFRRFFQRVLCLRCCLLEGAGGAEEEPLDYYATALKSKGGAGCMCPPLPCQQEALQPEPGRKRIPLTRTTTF
Method: (§2) The affinity of the compounds of the invention for the five human somatostatin receptor subtypes (sst1, sst2, sst3, sst4, and sst5) was determined in competition binding assays with (^125I-Tyr)-[Leu^8, DTrp^22]-Somatostatin-28 (^125I-LTT-SRIF-28). The biological material for these experiments consisted of membranes from Chinese hamster ovary (CHO) cells stably transfected with one of the five human somatostatin receptor subtypes. Membranes (3-20 μg of total protein per sample) and trace amount of ^125I-LTT-SRIF-28 were incubated in 10 mM Hepes, 1 mM EDTA, 5 mM MgCl2, 5 mg/ml of BSA and 30 μg/ml bacitracin, pH 7.6, with six concentrations of the compounds. Each concentration was run in duplicate. Nonspecific binding was defined by 1 μM somatostatin-14 (SRIF-14) and corresponded to 5-25% of total binding. After 60 min at room temperature, incubations were terminated by rapid vacuum filtration through GF/B glass fiber filter mats (presoaked at 4° C. in 200 ml of 10 mM Hepes, 1 mM EDTA, 5 mM MgCl2, pH 7.6) and three 5 ml washes with ice-cold wash buffer (20 mM TRIS, 1 mM EDTA, 5 mM MgCl2, pH 7.4). The filters were then dried, impregnated with scintillate and their radioactivity was measured by scintillation counting. The analysis of the experiments was carried out by nonlinear least square curve fitting. Affinity constants (Ki) were calculated from the IC50 values according to the Cheng-Prusoff's equation (Cheng and Prusoff, 1973). Experiments were repeated a minimum of three times.

[4] = target: T4, human somatostatin receptor subtype sst2 (Homo sapiens, UniProt P30874); test: Competition binding with 125I-LTT-SRIF-28, CHO cell membranes, sst2; conditions: membranes of CHO cells transfected with human sst2
T4 construct: expressed in transfected cells; host or cells: CHO cells (membranes)
T4 sequence (P30874 whole entry): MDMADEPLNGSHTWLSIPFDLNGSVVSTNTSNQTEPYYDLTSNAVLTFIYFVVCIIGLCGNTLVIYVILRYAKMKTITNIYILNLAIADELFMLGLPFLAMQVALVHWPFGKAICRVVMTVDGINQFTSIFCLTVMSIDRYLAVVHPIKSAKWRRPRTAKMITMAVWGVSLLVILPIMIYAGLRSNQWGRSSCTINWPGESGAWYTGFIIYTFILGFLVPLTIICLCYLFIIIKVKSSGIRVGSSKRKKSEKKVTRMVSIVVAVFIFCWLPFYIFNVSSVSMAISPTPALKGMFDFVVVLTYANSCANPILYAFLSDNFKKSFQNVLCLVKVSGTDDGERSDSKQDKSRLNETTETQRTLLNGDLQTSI
Method: as §1

[5] = target: T5, human somatostatin receptor subtype sst1 (Homo sapiens, UniProt P30872); test: Competition binding with 125I-LTT-SRIF-28, CHO cell membranes, sst1
T5 construct: expressed in transfected cells; host or cells: CHO cells (membranes)
T5 sequence (P30872 whole entry): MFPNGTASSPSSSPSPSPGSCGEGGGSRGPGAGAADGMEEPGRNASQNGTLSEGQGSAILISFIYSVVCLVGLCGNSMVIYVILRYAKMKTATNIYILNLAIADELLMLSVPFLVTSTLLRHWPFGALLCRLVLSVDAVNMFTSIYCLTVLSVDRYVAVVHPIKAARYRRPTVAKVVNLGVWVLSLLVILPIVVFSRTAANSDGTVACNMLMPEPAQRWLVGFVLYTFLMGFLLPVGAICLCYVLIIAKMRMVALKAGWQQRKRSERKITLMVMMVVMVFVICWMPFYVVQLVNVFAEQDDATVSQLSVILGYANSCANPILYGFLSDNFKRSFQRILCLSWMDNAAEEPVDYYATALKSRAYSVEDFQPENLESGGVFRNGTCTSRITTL
Method: as §2

[6] = clinical trials; Eriksen et al. 1995, van Essen et al. 1997; cited from earlier work
[7] = membranes of CHO cells transfected with human sst4, read-out: sst4 Ki
[8] = membranes of CHO cells transfected with human sst1, read-out: sst1 Ki
[9] = bound only, read-out: Ki values for the sst4
[10] = bound only, read-out: Ki values for the sst1

Row | SMILES | Ki [1] [nM] | Ki [2] [nM] | Ki [3, 7] [nM] | Ki [4] [nM] | Ki [5, 8] [nM] | Ki [3, 9] [nM] | Ki [5, 10] [nM] | efficacy in prevention of restenosis [6]
1 | Cc1ccc(S(=O)(=O)N[C@H](CCN)COCc2ccccc2)c2ccccc12 [compound 64, (R)-4-methylnaphthalene-1-sulfonic acid (3-amino-1-benzyloxymethylpropyl)amide] | – | – | – | – | – | < 300 | < 300 | –
2 | CC(C)[C@@H]1NC(=O)[C@H](CCCCN)NC(=O)[C@@H](Cc2c[nH]c3ccccc23)NC(=O)[C@H](Cc2ccc(O)cc2)NC(=O)[C@@H](NC(=O)[C@H](N)Cc2ccc3ccccc3c2)CSSC[C@@H](C(=O)N[C@H](C(N)=O)[C@@H](C)O)NC1=O [lanreotide] | – | – | – | – | – | – | – | failed to show efficacy
3 | C[C@@H](O)[C@@H]1NC(=O)[C@H](CCCCN)NC(=O)[C@@H](Cc2c[nH]c3ccccc23)NC(=O)[C@H](Cc2ccccc2)NC(=O)[C@@H](NC(=O)[C@H](N)Cc2ccccc2)CSSC[C@@H](C(=O)N[C@H](CO)[C@@H](C)O)NC1=O [octreotide] | – | – | – | – | – | – | – | failed to show efficacy

Further lines, with some results ahead:

Row | Ki [1] [nM] | Ki [2] [nM] | Ki [3, 7] [nM] | Ki [4] [nM] | Ki [5, 8] [nM] | Ki [3, 9] [nM] | Ki [5, 10] [nM] | SMILES | efficacy in prevention of restenosis [6]
4 | > 3000 | > 3000 | 5.6 ± 3.2 | > 10000 | 200 ± 60 | – | – | Cc1ccc(S(=O)(=O)N[C@@H](CCN)CNCc2ccccc2)c2ccccc12 [compound 2, (S)-4-methylnaphthalene-1-sulfonic acid (3-amino-1-benzyl-aminomethylpropyl)amide] | –
5 | > 3000 | > 3000 | 110 ± 10 | > 10000 | 9.6 ± 0.5 | < 300 | < 300 | Cc1ccc(S(=O)(=O)N[C@@H](CCCNC(C)C)COc2ccccc2)c2ccccc12 [compound 33, (S)-4-methylnaphthalene-1-sulfonic acid (4-isopropylamino-1-phenoxymethylbutyl)amide] | –
6 | – | – | – | – | – | < 300 | < 300 | Cc1ccc(S(=O)(=O)N[C@@H](CCNC2=NCCN2)COCc2ccccc2)c2ccccc12 [compound 79, (S)-4-methylnaphthalene-1-sulfonic acid [1-benzyloxymethyl-3-(4,5-dihydro-1H-imidazol-2-ylamino)propyl]amide formic acid salt] | –
